# According to patent US20150018299A1, “TREATMENT OF LIVER CONDITIONS” (CAN-FITE BIOPHARMA LTD., priority 2012, published 2015):
# “And” between values parts separate entries of the source, which are not always exact repeats. Identical values can stand only once.
# Experiments:
# [1] = tested on: patients with advanced hepatocellular carcinoma (HCC); assay: Phase 1-2 dose-escalation study of oral CF102: overall survival and clinical activity; assay type: in vivo, human; details: for Survival from start of CF102: individual subjects
# Excerpt: All patients were over the age of 18 with incurable advanced, refractory, or metastatic hepatocellular carcinoma (HCC), documented by cytology and/or histology for patients without underlying cirrhosis or according to the American Association for the Study of Liver Diseases Practice Guideline algorithm for patients with underlying cirrhosis. All patients had measurable disease, according to Response Evaluation Criteria in Solid Tumors (RECIST); […] The trial employed a conventional “three plus three” design. […] At the first stage nine patients were enrolled for the dose escalation phase and then additional nine were enrolled for the dose confirmation phase. Furthermore, nine patients have undergone intra-subject dose escalation per protocol. Subjects returned for a follow-up visit 28 days after completion of the last dose of study drug. […] Safety data analysis was conducted on all subjects who received at least one dose of CF102. The number and percentage of subjects who experienced one or more AEs were summarized by dose level group, relationship to study drug, and severity. AEs were coded using Medical Dictionary for Regulatory Activities (MedDRA) terminology. Clinical laboratory parameters were summarized using descriptive statistics, by post-dosing shifts relative to baseline, and data listings of clinically significant abnormalities. Vital signs and ECG data were summarized by changes from baseline values at each dose level using descriptive statistics. Pharmacokinetic parameters, including AUC (0-8 h), Cmax, Cmin, and Tmax was estimated. Comparisons across dose levels were made to assess proportionality. Overall survival was calculated using the Kaplan-Meier method.
# [2] = tested on: patients with hepatocellular carcinoma (HCC); assay: Phase 1-2 study of oral CF102: liver function parameters over 6 months; assay type: in vivo, human; details: serum, over a 6 months period
# Excerpt: The trial employed a conventional “three plus three” design. […] At the first stage nine patients were enrolled for the dose escalation phase and then additional nine were enrolled for the dose confirmation phase. Furthermore, nine patients have undergone intra-subject dose escalation per protocol. Subjects returned for a follow-up visit 28 days after completion of the last dose of study drug.
# [3] = human, in vivo
# Excerpt: The number and percentage of subjects who experienced one or more AEs were summarized by dose level group, relationship to study drug, and severity. AEs were coded using Medical Dictionary for Regulatory Activities (MedDRA) terminology. Clinical laboratory parameters were summarized using descriptive statistics, by post-dosing shifts relative to baseline, and data listings of clinically significant abnormalities. Vital signs and ECG data were summarized by changes from baseline values at each dose level using descriptive statistics. Pharmacokinetic parameters, including AUC (0-8 h), Cmax, Cmin, and Tmax was estimated. Comparisons across dose levels were made to assess proportionality. Overall survival was calculated using the Kaplan-Meier method.
smiles,measurement,setting,value
"CNC(=O)[C@H]1O[C@@H](n2cnc3c(NCc4cccc(I)c4)nc(Cl)nc32)[C@H](O)[C@@H]1O [CF102, 2-Chloro-N^6-(3-iodobenzyl)-adenosine-5′-N-methyluronamide]","Overall survival, range",[1]; 12 sorafenib failures,3.5-13.2 months
same,Median overall survival (OS),"[1]; 12 sorafenib failures, CF102 as second line therapy",7 months and 7.0 months
same,Median overall survival (OS),[1]; all 18 subjects,7.82 months and 7.8 months
same,"Overall survival, range",[1]; all 18 subjects,3.5-27.3 months
same,Median overall survival (OS),[1]; five Child-Pugh B patients,8.1 months
same,"Overall survival, range",[1]; five Child-Pugh B patients,7.0-13.2 months
same,Survival from start of CF102,[1]; starting dose 1 mg BID oral,7.1 months and 5.6 months and 13.2** months and 7.0 months and 8.2 months and 27.3* months
same,Survival from start of CF102,[1]; starting dose 5 mg BID oral,4.1 months and 7.1 months and 10.6 months and 10.7 months and 3.5 months and 4.2 months
same,Survival from start of CF102,[1]; starting dose 25 mg BID oral,8.3 months and 8.1 months and 7.6 months and 7.0 months and 12.6 months and 8.4 months
same,Period of Stable Disease (SD) by RECIST criteria,[1]; one subject,10 months
same,Time receiving CF102,"[1]; one subject, continuing on drug",≥ 41 months
same,"Liver function parameters: ALT, AST, albumin, bilirubin, prothrombin time, ALK phosphatase, α-fetoprotein",[2],remained stable
same,Plasma levels,[3],> 0.66 nM
